Data: publication PMC10015785, “A proteasomal β5 subunit of Haemonchus contortus with a role in the growth, development and life span” (Parasites & Vectors, 2023)
pIC50: −log10 of the molar value.

Molecular target: T1, proteasomal β5 subunit (Hc-PBS-5) (Haemonchus contortus, UniProt A0A7I5E5W5)
T1 sequence (A0A7I5E5W5 65-284): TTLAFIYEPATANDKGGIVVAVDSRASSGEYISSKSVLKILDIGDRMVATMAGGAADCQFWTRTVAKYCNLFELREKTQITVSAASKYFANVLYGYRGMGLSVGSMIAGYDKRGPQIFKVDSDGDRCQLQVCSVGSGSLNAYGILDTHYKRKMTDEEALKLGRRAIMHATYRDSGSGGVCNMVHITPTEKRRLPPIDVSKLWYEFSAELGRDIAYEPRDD
Type: biochemical

pIC50: 6.21
SMILES: CC(C)C[C@H](NC(=O)[C@H](Cc1ccccc1)NC(=O)c1cnccn1)B(O)O [bortezomib]
